For test [1], the target named is T1, Tyrosine-protein kinase JAK3 (Homo sapiens) (UniProt P52333).
T1 sequence (whole entry): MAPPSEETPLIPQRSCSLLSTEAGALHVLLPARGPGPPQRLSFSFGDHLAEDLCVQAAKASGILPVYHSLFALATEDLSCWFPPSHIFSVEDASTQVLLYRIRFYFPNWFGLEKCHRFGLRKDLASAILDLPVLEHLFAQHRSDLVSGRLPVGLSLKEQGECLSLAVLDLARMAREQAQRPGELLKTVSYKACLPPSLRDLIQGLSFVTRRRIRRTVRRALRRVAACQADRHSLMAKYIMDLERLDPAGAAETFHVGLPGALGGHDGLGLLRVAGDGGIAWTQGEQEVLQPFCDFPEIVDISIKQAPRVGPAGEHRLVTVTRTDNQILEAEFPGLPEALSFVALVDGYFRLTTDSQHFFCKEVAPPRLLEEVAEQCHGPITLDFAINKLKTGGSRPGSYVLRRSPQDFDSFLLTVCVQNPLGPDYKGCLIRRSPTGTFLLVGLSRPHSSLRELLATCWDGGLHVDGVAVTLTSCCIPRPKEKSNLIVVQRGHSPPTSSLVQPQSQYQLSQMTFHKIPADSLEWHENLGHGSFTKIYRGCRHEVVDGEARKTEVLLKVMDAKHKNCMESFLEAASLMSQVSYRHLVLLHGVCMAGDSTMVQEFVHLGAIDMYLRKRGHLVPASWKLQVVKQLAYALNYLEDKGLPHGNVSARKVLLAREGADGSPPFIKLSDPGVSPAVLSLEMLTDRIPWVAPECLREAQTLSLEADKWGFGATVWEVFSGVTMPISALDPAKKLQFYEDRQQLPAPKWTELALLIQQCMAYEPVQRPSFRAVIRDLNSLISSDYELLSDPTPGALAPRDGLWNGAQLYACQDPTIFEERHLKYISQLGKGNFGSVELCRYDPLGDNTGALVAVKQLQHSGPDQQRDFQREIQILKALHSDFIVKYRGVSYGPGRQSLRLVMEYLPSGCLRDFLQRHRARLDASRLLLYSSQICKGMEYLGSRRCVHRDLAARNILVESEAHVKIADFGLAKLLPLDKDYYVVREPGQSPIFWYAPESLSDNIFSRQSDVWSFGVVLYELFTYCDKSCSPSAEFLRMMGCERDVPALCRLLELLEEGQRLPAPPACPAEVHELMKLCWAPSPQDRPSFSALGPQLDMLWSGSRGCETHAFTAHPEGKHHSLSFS
The test is described as follows: Inhibition of human JAK3 using GGEEEEYFELVKKKK as substrate at 1 uM in presence of 32P-ATP by Hotspot assay relative to control; values are per cent of control.

Test [2] addresses Tyrosine-protein kinase Fer (Homo sapiens) (UniProt P16591). The test is described as follows: Inhibition of human FER using poly[Glu:Tyr] (4:1) as substrate at 1 uM in presence of 32P-ATP by Hotspot assay relative to control; values are per cent of control.
The target in test [3] is T2, Inhibitor of nuclear factor kappa-B kinase subunit alpha (Homo sapiens) (UniProt O15111).
T2 sequence (whole entry): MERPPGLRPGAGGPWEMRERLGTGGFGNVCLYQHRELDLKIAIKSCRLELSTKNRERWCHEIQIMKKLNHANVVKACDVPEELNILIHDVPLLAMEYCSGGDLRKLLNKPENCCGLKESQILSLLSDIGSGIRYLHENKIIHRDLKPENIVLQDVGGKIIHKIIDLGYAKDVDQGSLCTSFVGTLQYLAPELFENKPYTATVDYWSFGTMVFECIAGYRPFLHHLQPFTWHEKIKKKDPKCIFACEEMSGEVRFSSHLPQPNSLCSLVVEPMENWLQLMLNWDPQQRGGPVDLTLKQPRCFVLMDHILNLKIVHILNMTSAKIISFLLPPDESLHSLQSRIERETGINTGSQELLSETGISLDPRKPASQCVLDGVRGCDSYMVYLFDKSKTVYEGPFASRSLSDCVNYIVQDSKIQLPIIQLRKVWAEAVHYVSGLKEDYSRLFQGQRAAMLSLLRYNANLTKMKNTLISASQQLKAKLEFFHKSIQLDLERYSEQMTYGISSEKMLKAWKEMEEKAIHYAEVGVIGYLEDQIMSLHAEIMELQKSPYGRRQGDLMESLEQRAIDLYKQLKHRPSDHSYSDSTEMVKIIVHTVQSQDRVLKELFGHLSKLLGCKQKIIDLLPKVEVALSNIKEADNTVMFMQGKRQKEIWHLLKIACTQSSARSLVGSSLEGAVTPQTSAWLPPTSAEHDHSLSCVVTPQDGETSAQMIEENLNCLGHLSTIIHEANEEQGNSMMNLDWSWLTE
Put plainly: Inhibition of human IKKa/CHUK using KKKKERLLDDRHDSGLDSMKDEE as substrate at 1 uM in presence of 32P-ATP by Hotspot assay relative to control; values are per cent of control.

In test [4] the target is CDK1/Cyclin A (Homo sapiens) (UniProt P06493+P20248). Put plainly: Inhibition of human CDK1/cyclin A using RB Protein as substrate at 1 uM in presence of 32P-ATP by Hotspot assay relative to control; values are per cent of control.
For test [5], the target named is Dual specificity protein kinase CLK1 (Homo sapiens) (UniProt P49759). Put plainly: Inhibition of human CLK1 using myelin basic protein as substrate at 1 uM in presence of 32P-ATP by Hotspot assay relative to control; values are per cent of control.
Chain of Dual specificity protein kinase CLK1 (Homo sapiens) (P49759 whole entry, looked up): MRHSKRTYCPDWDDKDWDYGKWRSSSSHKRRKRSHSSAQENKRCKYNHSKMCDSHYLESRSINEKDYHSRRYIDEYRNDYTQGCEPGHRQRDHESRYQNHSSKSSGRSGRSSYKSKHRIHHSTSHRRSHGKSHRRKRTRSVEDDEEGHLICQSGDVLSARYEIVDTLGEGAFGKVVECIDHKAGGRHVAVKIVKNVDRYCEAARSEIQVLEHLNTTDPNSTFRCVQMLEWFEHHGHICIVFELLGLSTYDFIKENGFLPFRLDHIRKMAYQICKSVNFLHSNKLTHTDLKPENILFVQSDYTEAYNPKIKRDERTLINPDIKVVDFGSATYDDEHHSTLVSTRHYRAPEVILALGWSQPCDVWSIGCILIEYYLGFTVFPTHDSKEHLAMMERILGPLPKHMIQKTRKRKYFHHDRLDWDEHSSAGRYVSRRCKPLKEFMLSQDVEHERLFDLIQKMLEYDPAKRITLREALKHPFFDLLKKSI

Chain of Tyrosine-protein kinase Fer (Homo sapiens) (P16591 whole entry, looked up): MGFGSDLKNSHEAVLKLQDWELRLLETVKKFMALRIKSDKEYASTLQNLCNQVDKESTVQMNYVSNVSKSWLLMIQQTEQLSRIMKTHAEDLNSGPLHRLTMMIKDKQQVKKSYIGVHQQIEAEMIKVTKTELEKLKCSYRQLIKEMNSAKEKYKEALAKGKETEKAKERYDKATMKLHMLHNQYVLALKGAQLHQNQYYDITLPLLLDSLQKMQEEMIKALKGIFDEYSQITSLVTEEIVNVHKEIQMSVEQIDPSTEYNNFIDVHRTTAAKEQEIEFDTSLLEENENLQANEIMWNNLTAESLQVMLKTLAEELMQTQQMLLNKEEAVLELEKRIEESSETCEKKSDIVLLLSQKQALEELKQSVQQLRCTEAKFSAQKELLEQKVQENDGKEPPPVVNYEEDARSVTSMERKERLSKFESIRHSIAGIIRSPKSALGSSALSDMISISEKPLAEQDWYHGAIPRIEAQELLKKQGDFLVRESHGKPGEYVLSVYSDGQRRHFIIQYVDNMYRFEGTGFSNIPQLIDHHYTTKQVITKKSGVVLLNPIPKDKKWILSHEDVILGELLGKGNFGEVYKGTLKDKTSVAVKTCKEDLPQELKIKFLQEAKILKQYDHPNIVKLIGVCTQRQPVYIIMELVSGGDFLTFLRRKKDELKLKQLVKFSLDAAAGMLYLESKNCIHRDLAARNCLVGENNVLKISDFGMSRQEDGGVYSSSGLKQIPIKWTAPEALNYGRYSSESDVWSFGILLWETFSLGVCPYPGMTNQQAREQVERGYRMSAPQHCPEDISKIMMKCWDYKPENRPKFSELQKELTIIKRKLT
Chain of CDK1/Cyclin A (Homo sapiens) (P06493 whole entry, looked up): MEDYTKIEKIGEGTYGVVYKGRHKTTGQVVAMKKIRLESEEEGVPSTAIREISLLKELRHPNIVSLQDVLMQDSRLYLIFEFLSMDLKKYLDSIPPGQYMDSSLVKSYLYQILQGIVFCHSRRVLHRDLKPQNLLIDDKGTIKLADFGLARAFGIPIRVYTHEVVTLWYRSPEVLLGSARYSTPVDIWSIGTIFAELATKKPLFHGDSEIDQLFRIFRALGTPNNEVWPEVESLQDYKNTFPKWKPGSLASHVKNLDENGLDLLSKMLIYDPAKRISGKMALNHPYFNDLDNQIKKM
Chain of CDK1/Cyclin A (Homo sapiens) (P20248 whole entry, looked up): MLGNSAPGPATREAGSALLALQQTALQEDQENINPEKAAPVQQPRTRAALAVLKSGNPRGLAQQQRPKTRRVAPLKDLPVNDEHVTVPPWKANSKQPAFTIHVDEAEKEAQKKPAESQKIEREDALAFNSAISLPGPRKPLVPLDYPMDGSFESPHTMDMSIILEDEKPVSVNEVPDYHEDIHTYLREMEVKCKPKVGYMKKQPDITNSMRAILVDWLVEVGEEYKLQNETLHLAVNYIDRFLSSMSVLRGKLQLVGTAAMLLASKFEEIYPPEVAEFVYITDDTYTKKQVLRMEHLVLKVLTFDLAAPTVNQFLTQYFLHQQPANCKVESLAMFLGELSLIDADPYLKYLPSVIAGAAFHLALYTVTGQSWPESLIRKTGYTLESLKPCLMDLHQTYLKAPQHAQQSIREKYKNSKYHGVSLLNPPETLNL

In the case of `CNC(=O)c1ccc2c(c1)ncn2-c1ccc(CC(=O)OC(C)(C)C)cc1`, the residual activity in test [1] came out at 94.3%; in test [2], 91.6%; in test [3], 89.9%; in test [4], 94.5%; in test [5], 95.4%.

For the molecule `Cc1cc(-c2cnc(N)c3c(-c4ccc5scnc5c4)csc23)n(C)n1`, the residual activity in test [1] was 96.6%; in test [2] it was 87.9%; in test [3], 94.8%; in test [4], 98.9%; in test [5], 74.7%.

`CC(C)S(=O)(=O)c1ccc2nccc(Nc3ccc4scnc4c3)c2c1`: the residual activity was determined as 102% in test [1]; 98.4% in test [2]; 88.2% in test [3]; 88.6% in test [4]; 97.6% in test [5].
